Measured values: patent US11673910B2, “Macrolides with modified desosamine sugars and uses thereof” (Zikani Therapeutics, Inc., priority 2017, dated 2023)
Converted amounts (≈) assume the structure as drawn.

Experiments:
Format in all cases: cell-based
E. coli strain MP-4 = experiment: Broth dilution MIC determination (CLSI) against E. coli strain MP-4; conditions: Escherichia coli, MP4
Outline: (§1)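 CLSI broth microdilution, macrolide test compounds; MIC reported as category: ≤4 mg/L = +++, 8–<32 mg/L = ++, ≥32 mg/L = +.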

[1] = tested on: A. baumannii strain MP-15; experiment: Broth dilution MIC determination (CLSI) against A. baumannii strain MP-15; conditions: Acinetobacter baumannii, MP15
Outline: as §1

[2] = tested on: K. pneumoniae strain MP-548; experiment: Broth dilution MIC determination (CLSI) against K. pneumoniae strain MP-548; conditions: Klebsiella pneumoniae, MP548
Outline: as §1

[3] = tested on: P. aeruginosa strain MP-3; experiment: Broth dilution MIC determination (CLSI) against P. aeruginosa strain MP-3; conditions: Pseudomonas aeruginosa, MP3
Outline: as §1

S. aureus strain MP-12 = experiment: Broth dilution MIC determination (CLSI) against S. aureus strain MP-12; conditions: Staphylococcus aureus, MP12, strain MP-12
Outline: as §1

Row | MIC (E. coli strain MP-4) [µg/mL] | MIC [1] [µg/mL] | MIC [2] [µg/mL] | MIC [3] [µg/mL] | MIC (S. aureus strain MP-12) [µg/mL] | SMILES
1 | ≥ 32 | ≥ 32 | ≥ 32 | ≥ 32 | ≥ 32 | CC[C@H]1OC(=O)C(C)C(=O)[C@H](C)[C@@H](O[C@@H]2O[C@H](CN(C)C(=O)CNC)CC(N(C)C)[C@H]2O)[C@](C)(OC)C[C@@H](C)CN[C@H](C)[C@H]2NC(=O)O[C@@]21C (some centres unmarked) [Compound 173, 3-Descladinosyl-3-oxo-6-O-methyl-N9a-desmethyl-11,12-dideoxy-12,11-(oxycarbonylimino)-6′-N-methyl-2″-methylamino-acetamide Azithromycin]
2 | 8 to 32 (≈ 12.7 to 50.8 µM) | ≥ 32 | ≥ 32 | ≥ 32 | ≥ 32 | CC[C@H]1OC(=O)C(C)C(=O)[C@H](C)[C@@H](O[C@@H]2OC(CO)CC(N(C)C)C2O)[C@](C)(OC)C[C@@H](C)CN[C@H](C)[C@H]2NC(=O)O[C@@]21C (some centres unmarked) [Compound 57]
3 | ≥ 32 | ≥ 32 | ≥ 32 | ≥ 32 | ≤ 4 | CC[C@H]1OC(=O)[C@@](C)(F)C(=O)[C@H](C)[C@@H](O[C@@H]2OC(COC/C=C/c3cncnc3)CC(N(C)C)C2O)[C@](C)(OC)C[C@@H](C)C(=O)[C@H](C)[C@H]2NC(=O)O[C@@]21C (some centres unmarked) [Compound 105]
4 | ≤ 4 | ≥ 32 | ≤ 4 | ≥ 32 | ≥ 32 | CC[C@H]1OC(=O)C(C)C(=O)[C@H](C)[C@@H](OC2OC(CCNC3CC3)CC(N(C)C)C2O)[C@](C)(OC)C[C@@H](C)CN[C@H](C)[C@H]2NC(=O)O[C@@]21C (some centres unmarked) [Compound 187, 3-Descladinosyl-3-oxo-6-O-methyl-N9a-desmethyl-11,12-dideoxy-12,11-(oxycarbonylimino)-5′-desmethyl-5′-(2-(aminocyclopropyl)ethyl) Azithromycin]
5 | ≤ 4 | 8 to 32 (≈ 11.7 to 46.9 µM) | 8 to 32 (≈ 11.7 to 46.9 µM) | ≥ 32 | ≥ 32 | CO[C@]1(C)C[C@@H](C)CN[C@H](C)[C@H]2NC(=O)O[C@]2(C)[C@@H](C)OC(=O)C(C)C(=O)[C@H](C)[C@H]1OC1OC(CN(C)C2CCC2)CC(N(C)C)C1O (some centres unmarked) [Compound 155, 3-Descladinosyl-3-oxo-6-O-methyl-N9a-desmethyl-11,12-dideoxy-12,11-(oxycarbonylimino)-6′-methylcyclobutylamino-13-methyl Azithromycin]
6 | ≤ 4 | ≥ 32 | ≥ 32 | ≥ 32 | ≥ 32 | CC[C@H]1OC(=O)C(C)C(=O)[C@H](C)[C@@H](OC2OC(CN(C)CC3CC3)CC(N(C)C)C2O)[C@](C)(OC)C[C@@H](C)CN[C@H](C)[C@H]2NC(=O)O[C@@]21C (some centres unmarked) [Compound 153, 3-Descladinosyl-3-oxo-6-O-methyl-N9a-desmethyl-11,12-dideoxy-12,11-(oxycarbonylimino)-6′-methylcyclopropylmethylamino Azithromycin]
7 | ≤ 4 | ≥ 32 | 8 to 32 (≈ 11.3 to 45.3 µM) | ≥ 32 | ≥ 32 | CC[C@H]1OC(=O)C(C)C(=O)[C@H](C)[C@@H](O[C@@H]2OC(CNc3cccnc3)CC(N(C)C)C2O)[C@](C)(OC)C[C@@H](C)CN[C@H](C)[C@H]2NC(=O)O[C@@]21C (some centres unmarked) [Compound 52]
8 | ≤ 4 | ≥ 32 | ≥ 32 | ≥ 32 | ≥ 32 | CC[C@H]1OC(=O)C(C)C(=O)[C@H](C)[C@@H](O[C@@H]2OC(CNCc3ccccc3F)CC(N(C)C)C2O)[C@](C)(OC)C[C@@H](C)CN[C@H](C)[C@H]2NC(=O)O[C@@]21C (some centres unmarked) [Compound 29]
9 | 8 to 32 (≈ 11.4 to 45.8 µM) | ≥ 32 | ≥ 32 | ≥ 32 | ≥ 32 | CC[C@H]1OC(=O)C(C)C(=O)[C@H](C)[C@@H](O[C@@H]2OC(CNCC3COC3)CC(N(C)C)C2O)[C@](C)(OC)C[C@@H](C)CN[C@H](C)[C@H]2NC(=O)O[C@@]21C (some centres unmarked) [Compound 56]
10 | 8 to 32 (≈ 10.9 to 43.4 µM) | ≥ 32 | ≥ 32 | ≥ 32 | ≤ 4 | CC[C@H]1OC(=O)[C@@](C)(F)C(=O)[C@H](C)[C@@H](O[C@@H]2OC(CNCc3ccccn3)CC(N(C)C)C2O)[C@](C)(OC)C[C@@H](C)C(=O)[C@H](C)[C@H]2NC(=O)O[C@@]21C (some centres unmarked) [Compound 100]
11 | ≤ 4 | ≥ 32 | ≤ 4 | ≥ 32 | ≥ 32 | CC[C@H]1OC(=O)C(C)C(=O)[C@H](C)[C@@H](O[C@@H]2O[C@H](CNC3CCC3)CC(N(C)C)[C@H]2O)[C@](C)(OC)C[C@@H](C)CN(C)[C@H](C)[C@H]2NC(=O)O[C@@]21C (some centres unmarked) [Compound 163, 3-Descladinosyl-3-oxo-6-O-methyl-11,12-dideoxy-12,11-(oxycarbonylimino)-6′-cyclobutylamino Azithromycin]
12 | ≥ 32 | 8 to 32 (≈ 9.83 to 39.3 µM) | ≥ 32 | ≥ 32 | ≤ 4 | CC[C@H]1OC(=O)[C@@](C)(F)C(=O)[C@H](C)[C@@H](O[C@@H]2OC(COC/C=C/c3cnc4ccccc4c3)CC(N(C)C)C2O)[C@](C)(OC)C[C@@H](C)C(=O)[C@H](C)[C@H]2NC(=O)O[C@@]21C (some centres unmarked) [Compound 104]
13 | ≤ 4 | 8 to 32 (≈ 12.7 to 51 µM) | 8 to 32 (≈ 12.7 to 51 µM) | ≥ 32 | 8 to 32 (≈ 12.7 to 51 µM) | CC[C@@H]1CC(N(C)C)[C@@H](O)[C@H](O[C@@H]2[C@@H](C)C(=O)C(C)C(=O)O[C@H](CC)[C@@]3(C)OC(=O)N[C@@H]3[C@@H](C)NC[C@H](C)C[C@@]2(C)OC)O1 (some centres unmarked) [Compound 182, 3-Descladinosyl-3-oxo-6-O-methyl-N9a-desmethyl-11,12-dideoxy-12,11-(oxycarbonylimino)-5′-desmethyl-5′-ethyl Azithromycin]
14 | 8 to 32 (≈ 10.6 to 42.3 µM) | ≥ 32 | ≥ 32 | ≥ 32 | ≥ 32 | CC[C@H]1OC(=O)C(C)C(=O)[C@H](C)[C@@H](O[C@@H]2OC(CNc3ccc4ncncc4c3)CC(N(C)C)C2O)[C@](C)(OC)C[C@@H](C)CN[C@H](C)[C@H]2NC(=O)O[C@@]21C (some centres unmarked) [Compound 27]
15 | 8 to 32 (≈ 10.7 to 42.6 µM) | ≥ 32 | ≥ 32 | ≥ 32 | ≥ 32 | CC[C@H]1OC(=O)C(C)C(=O)[C@H](C)[C@@H](O[C@@H]2O[C@H](C(C)N(CC3CC3)CC3CC3)CC(N(C)C)[C@H]2O)[C@](C)(OC)C[C@@H](C)CN[C@H](C)[C@H]2NC(=O)O[C@@]21C (stereo partly drawn) [Compound 177, 3-Descladinosyl-3-oxo-6-O-methyl-N9a-desmethyl-11,12-dideoxy-12,11-(oxycarbonylimino)-6′-((R,S)-(dicyclopropylmethylamino)ethyl) Azithromycin]
16 | ≤ 4 | ≥ 32 | 8 to 32 (≈ 11.5 to 45.9 µM) | ≥ 32 | ≥ 32 | CC[C@H]1OC(=O)C(C)C(=O)[C@H](C)[C@@H](O[C@@H]2O[C@H](CNCC3CC3)CC(N(C)C)[C@H]2O)[C@](C)(OC)C[C@@H](C)CN(C)[C@H](C)[C@H]2NC(=O)O[C@@]21C (some centres unmarked) [Compound 162, 3-Descladinosyl-3-oxo-6-O-methyl-11,12-dideoxy-12,11-(oxycarbonylimino)-6′-cyclopropylmethylamino Azithromycin]
17 | ≤ 4 | ≥ 32 | 8 to 32 (≈ 11.1 to 44.3 µM) | ≥ 32 | 8 to 32 (≈ 11.1 to 44.3 µM) | CC[C@H]1OC(=O)C(C)C(=O)[C@H](C)[C@@H](O[C@@H]2OC(CNc3ccccc3F)CC(N(C)C)C2O)[C@](C)(OC)C[C@@H](C)CN[C@H](C)[C@H]2NC(=O)O[C@@]21C (some centres unmarked) [Compound 47]
18 | ≤ 4 | ≥ 32 | 8 to 32 (≈ 11 to 44.1 µM) | ≥ 32 | 8 to 32 (≈ 11 to 44.1 µM) | CC[C@H]1OC(=O)C(C)C(=O)[C@H](C)[C@@H](OC2OC(CNCCC(F)(F)F)CC(N(C)C)C2O)[C@](C)(OC)C[C@@H](C)CN[C@H](C)[C@H]2NC(=O)O[C@@]21C (some centres unmarked) [Compound 142, 3-Descladinosyl-3-oxo-6-O-methyl-N9a-desmethyl-11,12-dideoxy-12,11-(oxycarbonylimino)-6′-trifluoropropylamino Azithromycin]
19 | ≤ 4 | ≥ 32 | ≤ 4 | ≥ 32 | ≥ 32 | CC[C@H]1OC(=O)C(C)C(=O)[C@H](C)[C@@H](OC2OC(CNC3CCC3)CC(N(C)C)C2O)[C@](C)(OC)C[C@@H](C)CN[C@H](C)[C@H]2NC(=O)O[C@@]21C (some centres unmarked) [Compound 120, 3-Descladinosyl-3-oxo-6-O-methyl-N9a-desmethyl-11,12-dideoxy-12,11-(oxycarbonylimino)-6′-cyclobutylamino Azithromycin]
20 | ≥ 32 | ≥ 32 | ≥ 32 | ≥ 32 | ≥ 32 | CC[C@H]1OC(=O)C(C)C(=O)[C@H](C)[C@@H](OC2OC(C(O)CNC3CC3)CC(N(C)C)C2O)[C@](C)(OC)C[C@@H](C)CN[C@H](C)[C@H]2NC(=O)O[C@@]21C (some centres unmarked) [Compound 188, 3-Descladinosyl-3-oxo-6-O-methyl-8-oxo-N9a-desmethyl-11,12-dideoxy-12,11-(oxycarbonylimino)-6′-hydroxy-6′-cyclopropylaminomethyl Azithromycin]

Row | SMILES | MIC (E. coli strain MP-4) [µg/mL] | MIC [1] [µg/mL] | MIC [2] [µg/mL] | MIC [3] [µg/mL] | MIC (S. aureus strain MP-12) [µg/mL]
21 | CC[C@H]1OC(=O)[C@@]2(C)CCOC(C)(C[C@@H](C)CN[C@H](C)[C@H]3NC(=O)O[C@@]31C)[C@H](O[C@@H]1OC(CNC(C)C)CC(N(C)C)C1O)[C@@H](C)C2=O (some centres unmarked) [Compound 213] | ≤ 4 | ≥ 32 | ≤ 4 | ≥ 32 | ≤ 4
22 | CC[C@H]1OC(=O)[C@]2(C)CCO[C@](C)(C[C@@H](C)CN[C@H](C)[C@H]3NC(=O)O[C@@]31C)[C@H](O[C@@H]1O[C@H](CNCC3CC3)C[C@H](N(C)C)[C@H]1O)[C@@H](C)C2=O [Compound 196] | 8 to 32 (≈ 11.5 to 46 µM) | ≥ 32 | ≥ 32 | ≥ 32 | ≥ 32
